Experimental data taken from patent US11708357B2, “Crystal form of pyrrolidinyl urea derivative and application thereof” (ZHANGZHOU PIEN TZE HUANG PHARMACEUTICAL CO., LTD., priority 2020, dated 2023).

Legend:
[1] = In vivo pharmacokinetic study in rats after single administration; conditions: male, Sprague Dawley, rat, plasma, 300 mg/kg, 300 mpk oral administration
Experimental: Male SD rats were used as test animals, and the concentration of the compound in blood was determined after single administration to evaluate the pharmacokinetic behavior.
Sprague Dawley rats (male, 200-300 g, 7-9 weeks, Shanghai Charles River Laboratory Animal Co., Ltd.)
The pharmacokinetic characteristics of the test compound in rodents after intravenous injection and oral administration were tested by standard protocols, in the experiment, the test compound was prepared into a clear solution or homogeneous suspension, and administered to the rats by single intravenous injection and oral administration. In the intravenous injection group, the menstruum was a certain proportion of ethanol and physiological saline solution or a certain proportion of dimethyl sulfoxide in HP-β cyclodextrin solution (the pH was adjusted to 3-4), the mixture was vortexed and stirred to prepare 1 mg/mL clear solution, then filtered with microporous membrane for later use; in the oral administration group, the menstruum was a certain proportion of sodium carboxymethyl cellulose solution or a certain proportion of dimethyl sulfoxide in HP-β cyclodextrin solution (the pH was adjusted to about 4), after the test compound was mixed with the solvent, the mixture was vortexed and stirred to prepare 30 mg/mL homogeneous suspension for later use. After 2 mg/kg intravenous administration or 300 mg/kg oral administration to rats, a certain amount of whole blood samples were collected, centrifuged at 3000 g for 15 minutes, the supernatant was separated to obtain the plasma samples; then an acetonitrile solution containing internal standard with a volume 3 times that of the plasma sample was added to precipitate proteins, and then centrifuged; the supernatant was separated, and water with a volume twice that of the supernatant was added to the supernatant, which was then centrifuged again; the supernatant was collected for analysis; LC-MS/MS analysis method was used to quantitatively analyze the blood drug concentration, and Phoenix WinNonlin software (Pharsight, USA) was used to calculate the pharmacokinetic parameters, such as peak concentration, time to peak concentration, clearance rate, half-life, area under the concentration-time curve, bioavailability, etc.
(§1) Among them, C0 is the initial concentration, T1/2 is the elimination half-life, Vdss is the steady-state apparent volume of distribution, Cl is the total clearance rate, AUC0-inf is the area under the plasma drug concentration-time curve from time 0 to infinity, Cmax is the peak concentration, Tmax is the time to peak concentration.

[2] = In vivo pharmacokinetic study in beagle dogs after single administration; conditions: male, dog, plasma, 10 mg/kg, 10 mpk oral administration
Experimental: Male beagle dogs were used as test animals, the concentration of the compound in blood after single administration was determined to evaluate the pharmacokinetic behavior.
Beagle dogs (Male, 6-12 kg, more than 6 months, Beijing Marshall Biotechnology Co., Ltd.).
The objective of the test was to study the pharmacokinetic characteristics of the test compound in non-rodent after intravenous injection and oral administration. In the experiment, the test compound was prepared into a clear solution or homogeneous suspension and administered to the beagle dogs by single intravenous injection or oral administration. In the intravenous injection group, the menstruum was a certain proportion of dimethyl sulfoxide in HP-β-cyclodextrin solution or a certain proportion of ethanol, polyethylene glycol 400 and physiological saline solution, the mixture was vortexed and subjected to ultrasonic treatment to prepare 2 mg/mL clear solution, then filtered with microporous membrane for later use; in the oral administration group, the menstruum was a certain proportion of dimethyl sulfoxide in HP-β-cyclodextrin solution or a certain proportion of sodium carboxymethyl cellulose solution, the test compound was mixed with the menstruum, vortexed and subjected to ultrasonic treatment to prepare 2 mg/mL homogeneous suspension for later use. After 2 mg/kg intravenous administration or 10 mg/kg oral administration to the Beagle dogs, a certain amount of whole blood samples were collected, centrifuged at 3000 g for 10 minutes, and the supernatant was separated to obtain plasma samples; then an acetonitrile solution containing internal standard with a volume 10 times that of the plasma sample was added to precipitate proteins, and then centrifuged; the supernatant was separated for analysis; LC-MS/MS analysis method was used to quantitatively analyze the blood drug concentration, and Phoenix WinNonlin software (Pharsight, USA) was used to calculate the pharmacokinetic parameters, such as peak concentration, time to peak concentration, clearance rate, half-life, area under the concentration-time curve, bioavailability, etc.
as §1

[3] = Solid stability test (XRPD and HPLC purity); type: physicochemical
Experimental: Samples placed under high temperature and high humidity conditions were sealed with aluminum foil paper and small holes were punched in the aluminum foil paper to ensure that the sample could fully contact with ambient air; […] Samples placed under high temperature (60° C.) and high humidity (92.5% humidity, room temperature) conditions were sampled and tested (XRPD and purity) on the 5th and 10th day. […] Samples placed under the condition of illumination were sampled and tested when the total illuminance reached 1.2×10^6 Lux·hr.

[4] = Hygroscopicity by dynamic vapor sorption (DVS); type: physicochemical; conditions: 25° C. and 80% RH
Experimental: Instrument model: Intrinsic dynamic vapor sorption instrument
Detection conditions: A sample (10-30 mg) was placed in a DVS sample tray for detection.
Balance: dm/dt=0.002%/min (shortest: 10 min, longest: 180 min)

[5] = 40° C., relative humidity 75%, opened, 30 days
[6] = 40° C., relative humidity 75%, opened, 60 days
[7] = 60° C., relative humidity 75%, opened, 30 days
[8] = 60° C., relative humidity 75%, opened, 60 days
[9] = High humidity (room temperature/relative humidity 92.5%, opened), 5 days
[10] = High humidity (room temperature/relative humidity 92.5%, opened), 10 days
[11] = High temperature (60° C., opened), 5 days
[12] = High temperature (60° C., opened), 10 days
[13] = Illumination (total illuminance 1.2 × 10^6 Lux · hr/near ultraviolet 200 w · hr/m^2, opened)

COCCN1C[C@@H](n2ccc(F)c2)[C@H](NC(=O)Nc2c(C)c(-c3cnc(C4(F)COC4)nc3)nn2-c2ccccc2)C1
AUC(0-inf) [1]: 276 µM·h | Cmax [1]: 48.5 µM | Tmax [1]: 45 min | bioavailability [1]: 70.5% | half-life [1]: 195 min | AUC(0-inf) [2]: 26.4 µM·h | Cmax [2]: 10.4 µM | Tmax [2]: 45 min | bioavailability [2]: 113% | half-life [2]: 57 min | Crystal form (XRPD) ([3]; 0 day (initial)): Crystal form E | Purity ([3]; 0 day (initial)): 98.75% | Crystal form (XRPD) [3, 5]: Crystal form E | Purity [3, 5]: 98.14% | Crystal form (XRPD) [3, 6]: Crystal form E | Purity [3, 6]: 98.06% | Crystal form (XRPD) [3, 7]: Crystal form E | Purity [3, 7]: 98.17% | Crystal form (XRPD) [3, 8]: Crystal form E | Purity [3, 8]: 98.22% | Crystal form (XRPD) [3, 9]: Crystal form E | Purity [3, 9]: 98.62% | Crystal form (XRPD) [3, 10]: Crystal form E | Purity [3, 10]: 98.72% | Crystal form (XRPD) [3, 11]: Crystal form E | Purity [3, 11]: 98.74% | Crystal form (XRPD) [3, 12]: Crystal form E | Purity [3, 12]: 98.74% | Crystal form (XRPD) [3, 13]: Crystal form E | Purity [3, 13]: 98.83% | Classification of hygroscopicity [4]: hygroscopic (15% > ΔW % ≥ 2%) | hygroscopic weight gain ΔW [4]: 6.228%
